The values below come from patent US20240067632A1, “WEE1 Degrading Compounds and Uses Thereof” (Bristol-Myers Squibb Company, priority 2022, published 2024).

The target of one experiment is T1, WEE1 (Homo sapiens, UniProt P30291+Q96SW2).
T1 construct: C-terminal ePL-tagged (DiscoverX, Fremont, CA) full-length WEE1 expression construct; expressed in transfected cells; host or cells: LentiX-HEK293T (Invitrogen), lentiviral transduction; co-expressing GSPT1-GN (G576N, lacking the first 158 amino acids)
Nature of the experiment: WEE1-ePL degradation assay (LentiX-WEE1-ePL-GSPT1-ND cells, InCELL Hunter luminescence, 4 h). In kind it is cell-based. Conditions: 293T-LentiX WEE1-ePL cells; for DC50: read-out: 293T-LentiX WEE1-ePL Degradation 4 hr (EC50). The method in brief:
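Degradation EC50 was fitted by a four-parameter logistic model, with the upper limit taken from DMSO wells. Luminescence was read with InCELL Hunter reagent after 30 min at room temperature, following a 4 h, 37° C exposure of 2500 cells/well. Cells were LentiX-HEK293T carrying ePL-tagged full-length WEE1, dosed in 10 points (3-fold) from 1 or 10 uM.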

The subject of the next experiment is MKN45 cells. The experiment in a line: MKN45 cell proliferation assay (Cell-Titer-Glo, 120 h). In kind it is cell-based. Conditions: for EC50: Homo sapiens, MKN-45, 120 h, Cell-Titer-Glo, read-out: MKN45 Cell Prolif. 120 hr (EC50); for MKN45 Cell Prolif. 120 hr (Ymin-Obs): minimal percent of DMSO control observed in the concentrations tested. In a few lines: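 Growth inhibition was read as blank-corrected Cell-Titer-Glo luminescence expressed as percent DMSO control after 120 h at 37 C, 400 cells/well. Compounds tested in triplicate as 10-point half-log series from 1 or 10 uM, 0.1% DMSO; four-parameter fit gave EC50, and lowest observed percent control was reported as Ymin-obs.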

The mark [1] stands for this setting: lower limit of the fit (Ymin=0 luciferase inhibitor, Ymax DMSO control).
[2] abbreviates: lower limit of the fit (0 = luciferase inhibitor, Ymax = DMSO control).

Usually EC50 stands for the concentration that produces a half-maximal response.

Molecules are shown by their SMILES. Like-named read-outs stand apart in the source and are kept apart here.

As to `O=C1CC[C@H](N2Cc3cc(O[C@H]4CCN(Cc5cc(C(F)(F)F)c6nc(C7CCOCC7)ccc6c5)C4)ccc3C2=O)C(=O)N1` [(3S)-3-(5-{[(3S)-1-{[2-(oxan-4-yl)-8-(trifluoromethyl)quinolin-6-yl]methyl}pyrrolidin-3-yl]oxy}-1-oxo-2,3-dihydro-1H-isoindol-2-yl)piperidine-2,6-dione], the “293T-LentiX WEE1-ePL Degradation 4 hr (Ymin)” value on WEE1 (setting [1]) came to 42.83. Further, the DC50 on WEE1 was 2.48 nM. In the experiment on MKN45 cells, the EC50 came to 2.99 nM and the “MKN45 Cell Prolif. 120 hr (Ymin-Obs)” value is given as 2.25.

`O=C1CC[C@H](N2Cc3cc(O[C@H]4CCN(Cc5ccc6nc(C7CCOCC7)ncc6c5)C4)ccc3C2=O)C(=O)N1` [(3S)-3-(5-{[(3S)-1-{[2-(oxan-4-yl)quinazolin-6-yl]methyl}pyrrolidin-3-yl]oxy}-1-oxo-2,3-dihydro-1H-isoindol-2-yl)piperidine-2,6-dione]: the “293T-LentiX WEE1-ePL Degradation 4 hr (Ymin)” value on WEE1 (setting [2]) is reported as 32.12. The DC50 on WEE1 was 75 nM. In the experiment on MKN45 cells (growth inhibition), the EC50 is 29.3 nM. Moreover, in the experiment on MKN45 cells, the “MKN45 Cell Prolif. 120 hr (Ymin-Obs)” value is recorded as 9.327.

As for `O=C1CC[C@H](N2Cc3cc(O[C@H]4CCN(Cc5ccc6nc(C7CCOCC7)ccc6c5)C4)ccc3C2=O)C(=O)N1` [(3S)-3-(5-{[(3S)-1-{[2-(oxan-4-yl)quinolin-6-yl]methyl}pyrrolidin-3-yl]oxy}-1-oxo-2,3-dihydro-1H-isoindol-2-yl)piperidine-2,6-dione], the “293T-LentiX WEE1-ePL Degradation 4 hr (Ymin)” value on WEE1 (setting [2]) is given as 31.9. In addition, the DC50 on WEE1 stood at 1.62 nM. For the same compound, the EC50 in the experiment on MKN45 cells (growth inhibition) was 3.12 nM. In the experiment on MKN45 cells, the “MKN45 Cell Prolif. 120 hr (Ymin-Obs)” value came out at 10.43.

Regarding `O=C1CC[C@H](N2Cc3cc(O[C@H]4CCN(Cc5ccc6nc(N7CCOCC7)ncc6c5Cl)C4)ccc3C2=O)C(=O)N1` [(3S)-3-(5-{[(3S)-1-{[5-chloro-2-(morpholin-4-yl)quinazolin-6-yl]methyl}pyrrolidin-3-yl]oxy}-1-oxo-2,3-dihydro-1H-isoindol-2-yl)piperidine-2,6-dione], the “293T-LentiX WEE1-ePL Degradation 4 hr (Ymin)” value on WEE1 (setting [1]) was determined as 28.46. For the same compound, the DC50 at WEE1 was found to be 3.58 nM. Also, in the experiment with MKN45 cells, the EC50 came out at 18.3 nM and the “MKN45 Cell Prolif. 120 hr (Ymin-Obs)” value came out at 17.49.

With `O=C1CC[C@H](N2Cc3cc(O[C@H]4CCN(Cc5ccc6nc(C7CCOCC7)ccc6c5F)C4)ccc3C2=O)C(=O)N1` [(3S)-3-(5-{[(3S)-1-{[5-fluoro-2-(oxan-4-yl)quinolin-6-yl]methyl}pyrrolidin-3-yl]oxy}-1-oxo-2,3-dihydro-1H-isoindol-2-yl)piperidine-2,6-dione], at WEE1 (setting [2]), the “293T-LentiX WEE1-ePL Degradation 4 hr (Ymin)” value turned out to be 34.42. Moreover, the DC50 at WEE1 came to 0.306 nM. For the same compound, in the experiment with MKN45 cells (growth inhibition), the EC50 stood at 2.1 nM. Further, in the experiment with MKN45 cells, the “MKN45 Cell Prolif. 120 hr (Ymin-Obs)” value was found to be 12.14.

With `O=C1CC[C@H](N2Cc3cc(O[C@H]4CCN(Cc5cc6ccc(C7CCOCC7)cc6cn5)C4)ccc3C2=O)C(=O)N1` [(3S)-3-(5-{[(3S)-1-{[7-(oxan-4-yl)isoquinolin-3-yl]methyl}pyrrolidin-3-yl]oxy}-1-oxo-2,3-dihydro-1H-isoindol-2-yl)piperidine-2,6-dione], the “293T-LentiX WEE1-ePL Degradation 4 hr (Ymin)” value on WEE1 (setting [2]) is recorded as 33.42. Moreover, at WEE1, the DC50 is 0.844 nM. The EC50 in the experiment with MKN45 cells (growth inhibition) was determined as 1.82 nM. The “MKN45 Cell Prolif. 120 hr (Ymin-Obs)” value in the experiment with MKN45 cells is reported as 8.913.

Regarding `O=C1CC[C@H](N2Cc3cc(O[C@H]4CCN(Cc5cc6cnc(N7CCOCC7)nc6cc5F)C4)ccc3C2=O)C(=O)N1` [(3S)-3-(5-{[(3S)-1-{[7-fluoro-2-(morpholin-4-yl)quinazolin-6-yl]methyl}pyrrolidin-3-yl]oxy}-1-oxo-2,3-dihydro-1H-isoindol-2-yl)piperidine-2,6-dione], the “293T-LentiX WEE1-ePL Degradation 4 hr (Ymin)” value on WEE1 (setting [1]) came out at 36.02. Moreover, the DC50 on WEE1 was determined as 14.7 nM. Moreover, in the experiment on MKN45 cells, the EC50 came out at 15.2 nM and the “MKN45 Cell Prolif. 120 hr (Ymin-Obs)” value is 10.84.
